Tests used:
Acetylcholinesterase = Acetylcholinesterase (Electrophorus electricus, UniProt O42275); test: Inhibition of electric eel AChE using acetylthiocholine iodide as substrate preincubated for 5 mins before substrate addition measured for 10 mins by Ellman's method
[1] = target: 5-hydroxytryptamine receptor 4 (Cavia porcellus, UniProt O70528); test: Displacement of [3H]-GR113808 from guinea pig 5HT4 receptor by Grossman's method
[2] = target: 5-hydroxytryptamine receptor 4 (Homo sapiens) (UniProt Q13639); test: Displacement of [3H]-GR113808 from human 5HT4E receptor at 10^-6 M after 30 mins by liquid scintillation counting
Chain of 5-hydroxytryptamine receptor 4 (Homo sapiens) (Q13639 whole entry): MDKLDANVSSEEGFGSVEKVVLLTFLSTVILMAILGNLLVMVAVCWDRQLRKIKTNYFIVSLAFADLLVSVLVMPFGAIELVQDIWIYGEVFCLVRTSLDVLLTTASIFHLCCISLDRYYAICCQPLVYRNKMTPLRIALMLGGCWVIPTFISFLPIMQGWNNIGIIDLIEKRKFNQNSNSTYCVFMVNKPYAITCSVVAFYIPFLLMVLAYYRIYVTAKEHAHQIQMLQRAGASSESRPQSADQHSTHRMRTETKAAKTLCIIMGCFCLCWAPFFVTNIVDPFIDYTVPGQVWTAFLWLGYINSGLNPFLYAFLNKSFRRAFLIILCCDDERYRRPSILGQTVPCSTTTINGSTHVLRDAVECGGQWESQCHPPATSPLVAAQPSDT

[3] = target: 5-hydroxytryptamine receptor 4 (Homo sapiens) (UniProt Q13639); test: Displacement of [3H]-GR113808 from human 5HT4E receptor at 10^-8 M after 30 mins by liquid scintillation counting

Chain of Acetylcholinesterase (O42275 whole entry): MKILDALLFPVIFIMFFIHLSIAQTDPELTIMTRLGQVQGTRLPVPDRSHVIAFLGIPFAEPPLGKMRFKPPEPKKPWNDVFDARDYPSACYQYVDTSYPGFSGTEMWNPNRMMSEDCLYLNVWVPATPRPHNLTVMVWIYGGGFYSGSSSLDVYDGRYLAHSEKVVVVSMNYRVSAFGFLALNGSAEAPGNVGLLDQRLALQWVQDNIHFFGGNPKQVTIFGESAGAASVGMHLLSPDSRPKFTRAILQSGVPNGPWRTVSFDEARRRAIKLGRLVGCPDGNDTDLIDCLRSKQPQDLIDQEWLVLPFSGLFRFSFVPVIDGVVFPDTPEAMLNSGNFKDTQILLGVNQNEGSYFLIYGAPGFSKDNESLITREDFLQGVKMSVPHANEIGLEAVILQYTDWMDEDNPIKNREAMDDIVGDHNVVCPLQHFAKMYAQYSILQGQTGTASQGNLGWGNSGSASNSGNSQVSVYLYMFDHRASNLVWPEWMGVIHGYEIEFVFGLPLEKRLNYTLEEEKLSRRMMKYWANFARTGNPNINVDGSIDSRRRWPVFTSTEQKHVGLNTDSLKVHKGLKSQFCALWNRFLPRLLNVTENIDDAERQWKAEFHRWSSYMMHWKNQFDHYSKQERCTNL
Chain of 5-hydroxytryptamine receptor 4 (O70528 whole entry): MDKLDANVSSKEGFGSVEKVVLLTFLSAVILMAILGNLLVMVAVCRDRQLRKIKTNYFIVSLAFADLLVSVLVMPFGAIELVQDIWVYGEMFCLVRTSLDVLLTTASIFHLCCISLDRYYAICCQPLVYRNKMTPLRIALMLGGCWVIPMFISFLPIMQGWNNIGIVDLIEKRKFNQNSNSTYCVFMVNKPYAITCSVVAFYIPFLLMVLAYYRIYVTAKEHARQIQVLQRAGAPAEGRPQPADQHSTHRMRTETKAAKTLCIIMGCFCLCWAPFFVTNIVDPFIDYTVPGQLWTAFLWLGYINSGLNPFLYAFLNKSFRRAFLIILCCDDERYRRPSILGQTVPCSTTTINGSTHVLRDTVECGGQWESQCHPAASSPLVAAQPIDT

Row | SMILES | IC50 (Acetylcholinesterase) [nM] | Ki [1] [nM] | inhibition [2] [%] | inhibition [3] [%]
1 | c1cc2c(OCC3CCN(CC4CCCCC4)CC3)nc3ccsc3n2c1 | 206 | 79.9 | 99 | 22
2 | c1ccc(CN2CCC(COc3nc4ccsc4n4cccc34)CC2)cc1 | 551 | 52.9 | 96 | 30
3 | CCCN1CCC(COc2nc3scc(C)c3n3cccc23)CC1 | 5000 | 6 |  | 
4 | Cc1csc2nc(OCC3CCN(Cc4ccccc4)CC3)c3cccn3c12 | 165 | 22 | 98 | 38
5 | c1ccc(CN2CCC(CCOc3nc4ccsc4n4cccc34)CC2)cc1 | 561 |  |  | 
6 | c1cc2c(OCC3CCN(CC4CCCC4)CC3)nc3ccsc3n2c1 | 597 | 44.8 | 100 | 39
7 | c1cc2c(OCC3CCN(CC4CC4)CC3)nc3ccsc3n2c1 |  | 53 |  | 
8 | c1ccc(CCCN2CCC(COc3nc4ccsc4n4cccc34)CC2)cc1 |  | 75.8 |  | 
9 | Cc1csc2nc(OCC3CCN(CC4CCCCC4)CC3)c3cccn3c12 | 95.8 | 4.2 | 99 | 60
10 | c1cc2c(OCC3CCN(Cc4ccncc4)CC3)nc3ccsc3n2c1 |  | 174 |  | 
11 | c1ccc(CCN2CCC(COc3nc4ccsc4n4cccc34)CC2)cc1 |  | 49.8 |  | 
12 | COc1ccc(CN2CCC(COc3nc4ccsc4n4cccc34)CC2)cc1 |  | 216 |  | 
13 | Cc1csc2nc(OCC3CCN(CC4CCCC4)CC3)c3cccn3c12 | 553 | 21.3 | 100 | 78
14 | Fc1ccc(CN2CCC(COc3nc4ccsc4n4cccc34)CC2)cc1 |  | 99 |  | 
15 | c1cc2c(OCC3CCN(CC4CCC4)CC3)nc3ccsc3n2c1 |  | 25.9 |  | 

— ChEMBL document CHEMBL3217502, “Synthesis of dual AChE/5-HT4 receptor multi-target directed ligands” (Medchemcomm, 2012)
